Results from US9040249B2, “Pan-kinase activation and evaluation of signaling pathways” (Beckman Coulter, Inc., priority 2008, dated 2015).
Values joined by “and” are separate entries in the source; they are usually repeats but may differ in a detail not shown here. Equal entries are not always repeated. “Also recorded” adds a separate entry of the source.

How the values were obtained:
ERK [1] = test: LPS activation of MAPK signaling in whole blood monocytes, flow cytometry (P-ERK); format: cell-based, human
Protocol: (§1) 100 μl of blood was inserted into the bottom of 12×75 mm tubes. Blood was removed from the side of tube with cotton swab to eliminate potential contamination of the sample with unfixed cells. 100 ng lipopolysaccharide (LPS) was added to activation tubes (or equal volume of phosphate buffered saline (PBS) to control tubes) and the tubes were placed in 37° C. water bath.
(§2) After various incubation times (e.g. 1 minute to 60 minutes), the first tube was removed from the incubator and 65 μl 10% formaldehyde was added into tube. The tubes were mixed and placed in a rack and incubated at room temperature. After exactly a 10 minute incubation with formaldehyde, 1 ml Lyse/Permeabilization Buffer ([…] TRITON X-100 10% stock solution to 500 ml with PBS. 0.1165% TRITON X-100 solution at room temperature in the dark and pre-heated to 37° C. immediately prior to use.) was added to each tube, vortexed vigorously and returned to the rack. The tubes were incubated at room temperature for 15 minutes.
(§3) 2 ml cold Wash Buffer (PBS (w/o Ca++/Mg++) with 4% FBS, sterile filtered (0.22 um filter)) (4° C.) was added to each tube. All tubes were centrifuged at 500×g for 4 minutes. Tubes were removed from the centrifuge and supernate fluid was aspirated. 1 ml of cold (4° C.) 50% methanol was added to each tube and vortexed. All tubes were then incubated on ice for 10 minutes.
(§4) The tubes were then centrifuged at 500×g for 4 minutes and the supernate fluid was aspirated. 2 ml cold Wash Buffer (4° C.) was added to each tube. All tubes were centrifuged at 500×g for 4 minutes. Tubes were removed from the centrifuge and supernate fluid was aspirated.
(§5) Antibodies and cold Wash Buffer were added to a final volume of 100 μl and incubated at room temperature for 30 minutes. 2 ml cold Wash buffer was added, mixed and centrifuged. Cells were resuspended in 1 ml Wash Buffer, vortexed and analyzed on the flow cytometer.
(§6) In this study, a simultaneous measurement of four different signaling phospho-epitopes, which include P-ERK, P-p38 MAP Kinase, P-SAPK (Stress-Activated Protein Kinase), and P-S6 ribosomal protein (a measurement of new polypeptide synthesis), was conducted. This assay employed a measurement of the time course of LPS activation, in both “naive” whole blood, and whole blood samples previously exposed to LPS activation (“re-activated”). This assay also employed the fixation and permeabilization approach described above to measure both cell surface (CD14 to identify monocytes) and cytoplasmic or nuclear localized phospho-epitopes (P-ERK, P-p38, P-SAPK, and P-S6). This assay also employed an internal negative control to analyzing the data, relying on populations, rather than isotype controls, and measuring changes in MFI (mean fluorescence intensity) rather than percent positive.

p38 MAP Kinase = test: LPS activation of MAPK signaling in whole blood monocytes, flow cytometry (P-p38); format: cell-based, human
Protocol: as §1, §2, §3, §4, §5, §6

SAPK/JNK = test: LPS activation of MAPK signaling in whole blood monocytes, flow cytometry (P-SAPK/JNK); format: cell-based, human
Protocol: as §1, §2, §3, §4, §5, §6

ERK [2] = conditions: cited from earlier work
ribosomal S6 protein [3] = test: LPS activation of ribosomal S6 protein in whole blood monocytes, flow cytometry (P-S6); format: cell-based, human
Protocol: as §1, §2, §3, §4, §5, §6

ribosomal S6 protein [4] = test: Inhibition of S6 activation by LPS with ERK and PI3K inhibitors; format: cell-based, human
Protocol: as §1, §2
2 ml cold Wash Buffer (PBS (w/o Ca++/Mg++) with 4% FBS, sterile filtered (0.22 um filter)) (4° C.) was added to each tube. All tubes were centrifuged at 500×g for 4 minutes. […]
Antibodies and cold Wash Buffer were added to a final volume of 100 μl and incubated at room temperature for 30 minutes. […] Cells were resuspended in 1 ml Wash Buffer, vortexed and analyzed on the flow cytometer. […]

[5] = normal samples not previously exposed to LPS
[6] = normal whole blood, LPS 10 minutes at 37° C.
[7] = re-stimulation after 60 minutes, up to 2 hours
[8] = previously LPS-stimulated, 0 time of re-exposure
[9] = up to 120 minutes post stimulation

lipopolysaccharide [LPS]
ERK pathway activity after 60 minutes of LPS activation (ERK [1]; 60 minutes): decreased, but do not return to baseline | early P-ERK peak, time after LPS addition (ERK [1]; [5]): 1 to 4 min | second P-ERK peak, time after LPS stimulation (ERK [1]; [5]): 10 to 15 min | activated ERK in CD14+ monocytes (ERK [1]; [6]): all CD14+ monocytes have activated p-38, JNK, and ERK | ERK activity when additional LPS is added (ERK [1]; [7]): no additional increase in any MAPK activity | ERK activation six minutes after LPS activation (ERK [1]; six minutes, 37° C.): initial ERK activation declines | MFI of P-ERK upon re-exposure to LPS (ERK [1]; up to 90 minutes after LPS re-stimulation, versus 0 time control): does not change significantly above the 0 time control | earliest ERK activation, time following LPS stimulation (ERK [1]; whole blood monocytes, 37° C., before JNK or p38 activation): 2 min | percentage of P-p38 positive monocytes (p38 MAP Kinase; 15 min after LPS re-exposure): 46% | aggregate MFI of P-p38 (p38 MAP Kinase; 15 minutes after re-exposure to LPS): 5.5 | p38 pathway activity after 60 minutes of LPS activation (p38 MAP Kinase; 60 minutes): decreased, but do not return to baseline | monocytes retaining the same P-p38 MFI as in the 15 min primary response (p38 MAP Kinase; 120 min after primary LPS stimulation): Roughly 50% | monocyte population showing significant increase in P-p38 MFI (p38 MAP Kinase; after primary LPS stimulation): about 100% | levels of P-p38 after primary LPS stimulation (p38 MAP Kinase; even after periods of 120 min): do not return to basal levels | activated p38 in CD14+ monocytes (p38 MAP Kinase; [6]): all CD14+ monocytes have activated p-38, JNK, and ERK | aggregate MFI of P-p38 (p38 MAP Kinase; [8]): 5.0 | percentage of P-p38 positive monocytes (p38 MAP Kinase; [8]): 40% | time to maximal P-p38 MFI after LPS stimulation (p38 MAP Kinase; primary LPS stimulation): 15 min | P-p38 MFI peak time after restimulation with LPS (p38 MAP Kinase; re-stimulation): 15 to 20 min | p38 activity when additional LPS is added (p38 MAP Kinase; [7]): no additional increase in any MAPK activity | JNK pathway activity after 60 minutes of LPS activation (SAPK/JNK; 60 minutes): decreased, but do not return to baseline | time of P-SAPK peak after initial LPS stimulation (SAPK/JNK; initial stimulation): 15 min | activated JNK in CD14+ monocytes (SAPK/JNK; [6]): all CD14+ monocytes have activated p-38, JNK, and ERK | JNK activity when additional LPS is added (SAPK/JNK; [7]): no additional increase in any MAPK activity | P-SAPK levels after initial LPS stimulation (SAPK/JNK; [9]): do not return to basal levels | P-SAPK positive monocytes (SAPK/JNK; [9]): 30-40% | percent of monocytes expressing phospho-ERK after LPS treatment in vitro (ERK [2]; normal controls, 15 min after LPS addition, 35% without LPS): 58% | increase in P-ERK monocytes following LPS addition in vitro (ERK [2]; presumably septic patients, 25% before LPS): less than 10% | peak activation of S6 relative to other pathway proteins (ribosomal S6 protein [3]; LPS stimulated monocytes): later than other MAPK pathway proteins | time of P-S6 peak after LPS stimulation (ribosomal S6 protein [3]; normal individuals, primary stimulation): 15 to 30 min and 15 to 60 min | persistence of P-S6 levels following LPS stimulation (ribosomal S6 protein [3]; primary stimulation): > 120 min | MFI of the P-S6 population following LPS re-stimulation (ribosomal S6 protein [3]; re-stimulation): little change in the MFI

N#CC(=C(/N)Sc1ccccc1N)/C(C#N)=C(\N)Sc1ccccc1N [U0126]
inhibition of S6 activation by LPS (ribosomal S6 protein [4]; ERK inhibitor U0126 and PI3K inhibitor Ly294002 both present): inhibition of phosphorylation was seen; also recorded: Complete inhibition | inhibition of S6 activation by LPS (ribosomal S6 protein [4]; inhibitor alone): Only inhibition of both pathways leads to complete inhibition
